IC50 data for seven compounds are collected here from patent publication US20040102442A1, “Remedies for alzheimer's disease” (priority 2000, published 2004).

For this assay, the target named is T1, Human type-X sPLA2 (Homo sapiens, UniProt O15496).
T1 construct: made in house; host or cells: CHO cells, stably transfected with a pSVL expression vector; culture supernatant used as the enzyme source
T1 sequence (O15496 43-165): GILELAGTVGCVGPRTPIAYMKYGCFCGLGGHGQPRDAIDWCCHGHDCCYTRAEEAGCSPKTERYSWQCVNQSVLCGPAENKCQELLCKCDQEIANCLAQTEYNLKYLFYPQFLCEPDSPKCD
Nature of the assay: type-X sPLA2 inhibition test (chromogenic assay, diheptanoylthio PC). The note with it: diheptanoylthio PC 1 mM, Triton X-100 0.3 mM, 30 min at 40° C., absorbance at 405 nm. In kind it is biochemical. The text has this:
cDNA sequence encoding human type-X sPLA2 (Cupillard et al., J. Biol. Chem, 1997, 272, 15745-15752) was inserted into the downstream region of the promoter of pSVL SV40 Late Promoter Expression Vector (Amersham Pharmacia Biotech Inc.) that is an expression vector for mammalian cells. The obtained expression vector was transfected into the host CHO cells with a LipofectAMINE reagent (Gibco BRL Inc.) according to the manufacture's instruction to obtain the CHO cells stably expressing human type-X sPLA2. The transfected cell was cultured in A-MEM medium containing 10% fetal calf serum for 3 days and its culture supernatant was used for the measurement of each enzyme activity.
In order to identify and evaluate an inhibitor of type-X sPLA2, the following chromogenic assay is utilized. This assay has been applied for high volume screening using a 96-well microtiterplate. A general explanation for this assay is described in “Analysis of Human Synovial Fluid Phospholipase A2 on Short Chain Phosphatidylcholine-Mixed Micelles: Development of a Spectrophotometric Assay Suitable for a Micortiterplate Reader” (Analytical Biochemistry, 204, pp 190-197, 1992 by Laure. J. Reynolds. Lori L. Hughes and Edward A. Dennis.
Human type-X sPLA2 was incubated (30 min at 40° C. (15 μl/well)) with diheptanoylthio PC (1 mM) in the presence of Triton X-100 (0.3 mM) and 5,5′-dithiobis(2-nitrobenzoic acid) (125 μM) in Tris-HCl buffer (25 mM, pH 7.5) containing CaCl2 (10 mM), KCl (100 mM), and bovine serum albumin (1.0 mg/mL). The changes in the absorbance at 405 nm were measured and the inhibition activities were calculated.
Consider `CCc1c(C(=O)C(N)=O)c2c(OCC(=O)O)nc(-c3ccccc3)cn2c1Cc1ccccc1` [Compound 3], for which inhibition was half-maximal at 5 nM (IC50).

For the compound `CCc1c(C(=O)C(N)=O)c2c(OCC(=O)NS(=O)(=O)c3ccccc3)cccc2n1Cc1ccccc1` [Compound 18], half-maximal inhibition (IC50) required 16 nM.

On to `CCc1c(C(=O)C(N)=O)c2c(OCC(=O)O)nc(C3CCCCC3)cn2c1Cc1ccccc1` [Compound 16], for which 7 nM corresponded to half-maximal inhibition (IC50). Compared with the last compound, the IC50 is about 2.3-fold lower.

In the case of `CCCc1c(C(=O)C(N)=O)c2c(OCC(=O)O)nc(C)cn2c1Cc1ccccc1` [Compound 4], the IC50 (usually the concentration needed to halve the response being measured) was determined as 27 nM.

For the compound `CCCc1c(C(=O)C(N)=O)c2c(OCC(=O)O)nc(C)cn2c1CC1CCCCC1` [Compound 5], the half-inhibitory concentration (IC50) was 12 nM.

For `CCc1c(C(=O)C(N)=O)c2c(OCC(=O)O)nc(C)cn2c1Cc1ccccc1Cc1ccccc1` [Compound 2], half-maximal inhibition (IC50) required 10 nM.

`CCc1c(C(=O)C(N)=O)c2c(OCC(=O)O)nc(C)cn2c1Cc1cccc(-c2ccccc2)c1` [Compound 1]: the half-inhibitory concentration (IC50) stood at 10 nM.
